Source: patent US20230390223A1, “ADMINISTRATION OF […] COMPOSITIONS FOR TREATING NERVOUS SYSTEM DISORDERS” (PaxMedica, Inc., priority 2020, published 2023)
Where “and” joins values, the source holds several entries; their conditions need not be identical. Equal entries are not always repeated. Where two headings read alike, the source gives them in different places.

What was measured:
mouse model of epilepsy = details: cited from earlier work
[1] = system: B6.129P2-Fmr1tm1Cgr/J transgenic (TG) mice; assay: Light/dark preference test (LDT), anxiety-like behavior, SmartCage; format: in vivo
Source text: The light/dark preference test (LDT) is one of the most widely used tests in pharmacology to measure unconditioned anxiety-like behavior in mice. The test is based on the natural aversion of mice to brightly illuminated areas and on their spontaneous exploratory behavior in response to a novel environment and light. See, Takao, K., et al., Light/dark Transition Test for Mice. J. Vis. Exp. (1), e104, doi:10.3791/104 (2006).
This study used a SmartCage™ system, which is an automated non-invasive rodent behavioral monitoring system which enables biomedical researchers to conduct a variety of neurobehavioral assays through consistent and accurate monitoring of rodent home cage activity and behavior. See, Xie X. S. et al. (2012) Rodent Behavioral Assessment in the Home Cage Using the SmartCage™™ System. In: Chen J., Xu X M., Xu Z., Zhang J. (eds) Animal Models of Acute Neurological Injuries II. Springer Protocols Handbooks. Humana Press, Totowa, NJ.
• 1. N=6 mice per group. • 2. All behavioral testing included a group of untreated wild type controls. • 3. Dosing for the various groups were as follows: • a. […] Group 2: IP saline, […], administered weekly to animals beginning at 9 weeks of age and continuing for four weeks (i.e. given at Age Weeks 9, 10, 11 and 12). • c. […] Behavioral tests for all groups (Groups 1-5) began the following day after the last day of IN dosing (Weeks 13-14 of age). • 2. Blood samples (PK testing) were collected from all mice at the end of 12 Weeks of age, just prior to starting the behavioral tests in Week 13. • 3. Brain tissue (for biochemistry testing) was harvested from all mice upon sacrifice at the conclusion of all behavioral testing at the end of 13-14 Weeks of age.
(§1) Male B6.129P2-Fmr1tm1Cgr/J TG mice were purchased from Jackson Laboratories, Bar Harbor, Maine. These mice were of approximately 8(±1) weeks of age. […] Mice accommodated to the research facility for the remainder of the week. Dosing began on the following Monday. Body weights of all mice were recorded for health monitoring purposes.
Dosing was carried out over the course of 28 days as instructed by the study sponsor. • 1. Prior to the beginning of the light/dark test, a dark box (red transparent enclosure with an opening for the mouse to enter) is placed in the SmartCage™. • 2. An individual mouse is placed in the open/non-dark box side (“Light Zone”), with its head facing away from the dark box. • 3. The mouse is then allowed to freely explore the SmartCage™ and enter the dark box “Dark Zone” at its own discretion over a 10-minute span. • 4. Anxiety-like behavior is assessed based on the SmartCage™ monitoring of time spent in the Light Zone, the number of Light Zone entries, and % Time Spent in the Light Zone. • 5. […] Wildtype Control data (collected separately prior to the beginning […] of the B6.129P2-Fmr1tm1Cgr/J TG mice) was added to the final data analysis to serve as a comparison for naive, male C57BL/6 mice.
No food or water is withheld and only natural stressors such as light are used. Four similarly calibrated SmartCages™ were used to record four mice simultaneously (example cage shown below). All Light/Dark tests were completed in one day.
Light/Dark Test Setup—Dark Box placed within the transparent homecage; homecage placed within the SmartCage™ monitoring system.

[2] = system: B6.129P2-Fmr1tm1Cgr/J transgenic (TG) mice; assay: Locomotor activity test, SmartCage ~24 h recording; format: in vivo; details: for Active time: versus WT control group
[3] = system: B6.129P2-Fmr1tm1Cgr/J transgenic (TG) mice; assay: Step through passive avoidance test (learning and memory); format: in vivo
Source text: The Passive Avoidance task is useful for evaluating the effect of novel chemical entities on learning and memory as well as studying the mechanisms involved in rodent models of CNS disorders. In this test, the test chamber is divided into a lighted compartment and a dark compartment, with a gate between the two. The test animals explored both compartments on the first day. The next day, they are given a mild foot shock in the dark compartment and they will learn to associate the dark compartment with the foot shock. In order to test their learning and memory, the mice are then placed back in the lighted compartment. Passive avoidance behavior of rodents is defined as the suppression of their innate preference for the dark compartment. Mice with normal learning and memory will avoid entering the dark chamber. Learning and memory from the previous day is measured by recording the latency to cross through the gate between the two compartments. See, J. David Sweatt, Chapter 4: Rodent Behavioral Learning and Memory Models, Editor: J. David Sweatt. Mechanisms of Memory (Second Edition), Academic Press, 2010, Pages 76-103, ISBN 9780123749512.
This study used a SmartCage™ system, which is an automated non-invasive rodent behavioral monitoring system which enables biomedical researchers to conduct a variety of neurobehavioral assays through consistent and accurate monitoring of rodent home cage activity and behavior. See, Xie et al, 2012.
• 1. N=6 mice per group. • 2. All behavioral testing included a group of untreated wild type (WT) controls. • 3. Dosing for the various groups were as follows: • a. […] Group 2: IP saline, […], administered weekly to animals beginning at 9 weeks of age and continuing for four weeks (i.e. given at Age Weeks 9, 10, 11 and 12). • c. […] Behavioral tests for all groups (Groups 1-5) began the following day after the last day of IN dosing (Weeks 13-14 of age). • 2. Blood samples (for PK testing) were collected from all mice at the end of Week 12 of age, just prior to starting the behavioral tests in Week 13 of age. • 3. Brain tissue (for biochemistry testing) was harvested from all mice upon sacrifice at the conclusion of all behavioral testing at the end of Week 13-14 of age.
as §1, with “TG (TG)” for “TG”, “8 (±1)” for “8(±1)”
Dosing was carried out over the course of 28 days as instructed by the study Sponsor. […]

[4] = Determination of suramin in plasma and brain tissue after IP or IN administration; format: in vivo, mice; details: for Kp: male, Fmr1-knockout B6.129P2-Fmr1tm1Cgr/J, mouse, brain/plasma, other: intranasal, 100 mg/mL, read-out: Average Brain Tissue to Plasma Partitioning Ratio
Source text: For the study, male Fmr1-knockout B6.129P2-Fmr1tm1Cgr/J TG mice were purchased from Jackson Laboratories, Bar Harbor, Maine. These mice were of approximately 8 weeks of age. […] The absence of FMRP in these mice induces an over-activation of RAC1, a protein of the Rho GTPase subfamily that plays a critical role in dendritic morphology and synaptic function. These B6.129P2-Fmr1tm1Cgr/J TG mice, provide an animal model for cognitive disabilities and neurodevelopmental disorders.
Mice were accommodated to the research facility for approximately a week. Body weights of all mice were recorded for health monitoring purposes.
The remaining ingredients, except the cyclodextrin are added with mixing. The cyclodextrin is then added with mixing until dissolved. The resultant solution is allowed to sit for 2 hours before using.
Blood samples were collected from all mice at the end of 12 weeks of age. Brain tissue was harvested from all mice upon sacrifice 13-14 weeks of age. Standard sample preparation and analytical techniques were used to obtain the data.

[5] = 10-minute test, group regimens: A-804598 IP 30 mg/kg/day, tangeretin IP 10 mg/kg/day, emodin+piperine PO 20 mg/kg each twice per day
[6] = 10-minute test, suramin IN weekly (100 mg/mL, one spray per nostril, 4 weeks)
[7] = suramin IP 20 mg/kg weekly for four weeks
[8] = 5-minute test, suramin IP 20 mg/kg weekly for four weeks

For `O=C(NCC1(N2CCN(c3ccccc3)CC2)CCOCC1)c1cccnc1Sc1ccccc1` [JNJ-47965567, 2-(Phenylthio)-N-[[tetrahydro-4-(4-phenyl-1-piperazinyl)-2H-pyran-4-yl]methyl]-3-pyridinecarboxamide], the “effect on epileptic seizures” value (mouse model of epilepsy) is listed as “suppress epileptic seizures”.
With `COc1ccc(-c2cc(=O)c3c(OC)c(OC)c(OC)c(OC)c3o2)cc1` [Tangeretin, 5,6,7,8-tetramethoxy-2-(4-methoxyphenyl)-4H-1-benzopyran-4-one] the “percentage of time spent in the Light Zone” value [1, 5] was “higher percentage of time spent in the Light Zone”, the “total time spent in the light zone” value [1, 5] was about 6.5 min and the Active time ([2]; A-804598 IP 30 mg/kg/day, tangeretin IP 10 mg/kg/day) was “greater activity compared to the WT control group”. For the same molecule, the “total number of Dark Zone Entries” value ([3]; test day, tangeretin IP 10 mg/kg/day, emodin+piperine PO 20 mg/kg each twice per day, other groups at their regimens) was “one”.
For `Cc1ccc(C(=O)Nc2ccc(S(=O)(=O)O)c3cc(S(=O)(=O)O)cc(S(=O)(=O)O)c23)cc1NC(=O)c1cccc(NC(=O)Nc2cccc(C(=O)Nc3cc(C(=O)Nc4ccc(S(=O)(=O)O)c5cc(S(=O)(=O)O)cc(S(=O)(=O)O)c45)ccc3C)c2)c1` [suramin, 1,3,5-Naphthalenetrisulfonic acid, 8,8′-[carbonylbis[imino-3,1-phenylenecarbonylimino(4-methyl-3,1-phenylene)carbonylimino]]bis-], the “Average Plasma Concentration” value ([4]; Group 1: IP 20 mg/kg weekly for four weeks, blood at end of 12 weeks of age, 20 mg/kg) was 18733 ng/ml and 14.440 μM, the “Average Plasma Concentration” value ([4]; Group 3: IN formulation 100 mg/mL, one spray per nostril, one time per day for 28 days) was 1637 ng/ml and 1.262 μM and the “Average Plasma Concentration” value ([4]; Group 4: IN formulation 100 mg/mL, one spray per nostril, every other day for 28 days) was 1578 ng/ml and 1.217 μM. The “Average Plasma Concentration” value ([4]; Group 5: IN formulation 100 mg/mL, one spray per nostril, one time every week for 4 weeks) was 278.7 ng/ml and 0.215 μM, the Kp ([4]; one spray per nostril, Group 3: IN formulation 100 mg/mL, one spray per nostril, one time per day for 28 days) was 0.069 and the Kp ([4]; one spray per nostril, Group 4: IN formulation 100 mg/mL, one spray per nostril, every other day for 28 days) was 0.089. For the same molecule, the Kp ([4]; one spray per nostril, Group 5: IN formulation 100 mg/mL, one spray per nostril, one time every week for 4 weeks) was 0.235, the “percentage of time spent in the Light Zone” value [1, 6] was “higher percentage of time spent in the Light Zone” and the “total time spent in the light zone” value [1, 6] was about 6.5 min. The “Dark Zone entry latency” value ([1]; all IN suramin groups (daily, every other day, weekly; 100 mg/mL, one spray per nostril, 28 days)) was 60 to 65 s, the “Dark Zone entry latency” value [1, 7] was 30 to 40 s and the Active time ([2]; all IN Suramin groups (Daily, Weekly, Every 2 Days)) was “greater activity compared to the WT control group”. The Rearing count ([2]; suramin IN every 2 days, versus WT control) was “comparable to the WT control group”, the “percentage of time spent in the light zone on the test day” value [3, 8] was “approximately 50%” and the “total light zone time on the test day” value [3, 8] was “lower total time”. For the same molecule, the “Dark Zone entry latency, Test Day (24 h post-foot shock)” value [3, 7] was “shortest latency for entering the dark compartment”.
In the case of `C[C@H](N/C(=N/C#N)Nc1cccc2ncccc12)c1ccccc1` [Formulation A-804598, N-Cyano-N″-[(1S)-1-phenylethyl]-N′-5-quinolinyl-guanidine], the “number of Light Zone entries” value ([1]; 10-minute test, each group at its regimen, compared to WT mice) is reported as “significantly lower number of light zone entries”.
